Read-outs that look alike come from different tables or passages of the source. Bridge positions count the residues as written; N and C are the ends. Square brackets hold non-standard residues; d marks the D form. Peptide text beside a SMILES is read from it. Bip = N[C@@H](Cc1ccc(-c2ccccc2)cc1)C(=O)O; 1Nal = N[C@@H](Cc1cccc2ccccc12)C(=O)O; 2Nal = N[C@@H](Cc1ccc2ccccc2c1)C(=O)O; d2Nal = N[C@H](Cc1ccc2ccccc2c1)C(=O)O; Bta = N[C@@H](Cc1csc2ccccc12)C(=O)O; hArg = N=C(N)NCCCC[C@H](N)C(=O)O; Nle = CCCC[C@H](N)C(=O)O; GABA = NCCCC(=O)O; βAla = NCCC(=O)O
What was measured:
[1] = target: T1, hMC1-R (Homo sapiens, UniProt Q01726); experiment: Radioligand binding assay, [125I]-NDP-α-MSH competition, CHO-K1 membranes
T1 construct: expressed in transfected cells; host or cells: CHO-K1

[2] = target: T2, hMC3-R (Homo sapiens, UniProt P41968); experiment: as above
T2 construct: expressed in transfected cells; host or cells: CHO-K1

[3] = target: T3, hMC4-R (Homo sapiens, UniProt P32245); experiment: as above
T3 construct: expressed in transfected cells; host or cells: CHO-K1

[4] = target: T4, hMC5-R (Homo sapiens, UniProt P33032); experiment: as above
T4 construct: expressed in transfected cells; host or cells: CHO-K1

[5] = target: T1, hMC1-R; experiment: cyclic AMP bioassay (ECL) in CHO-K1 cells; format: cell-based
[6] = target: T2, hMC3-R; experiment: cyclic AMP bioassay (ECL) in CHO-K1 cells; format: cell-based; settings: for Kb: Table 9C/9D, antagonist potency by Schild analysis, read-out: Kb hMC3-R
[7] = target: T3, hMC4-R; experiment: cyclic AMP bioassay (ECL) in CHO-K1 cells; format: cell-based; settings: for Kb: Table 9C/9D, antagonist potency by Schild analysis, read-out: Kb MC4-R
[8] = target: T4, hMC5-R; experiment: cyclic AMP bioassay (ECL) in CHO-K1 cells; format: cell-based
Protocol: Intracellular cyclic AMP (cAMP) levels were determined by an electrochemiluminescence (ECL) assay (Meso Scale Discovery®, Gaithersburg, Md.; referred to hereinafter as MSD). […] Transgenic CHO-K1 cells stably expressing hMC receptor subtypes 1, 3, 4 or 5 were dispensed at a density of approximately 7,000 cells/well in 384-well Multi-Array®plates (MSD) containing integrated carbon electrodes and coated with anti-cAMP antibody. Increasing concentrations of the test compounds were added and the cells were incubated for approximately 40 minutes at approximately 37° C. […] At the end of the second incubation period read buffer (Tris-buffered solution containing an ECL co-reactant and Triton X-100 at ph 7.8) was added and the cAMP levels in the cell lysates were immediately determined by ECL detection with a Sector Imager 6000 Reader® (MSD). Data were analyzed using a computer-assisted non-linear regression analysis (XL fit; IDBS) and reported as either an EC50 value or a Kb value.
The Kb value reflects the potency of an antagonist and is determined by Schild analysis. In brief, concentration-response curves of an agonist are carried out in the presence of increasing concentrations of an antagonist. […] It is calculated by extrapolating the line on a Schild plot to zero on the y-axis.

[9] = Table 9C/9D, read-out: EC50 hMC1-R
[10] = Table 9C/9D, read-out: EC50 hMC5-R

T1 sequence (Q01726 whole entry): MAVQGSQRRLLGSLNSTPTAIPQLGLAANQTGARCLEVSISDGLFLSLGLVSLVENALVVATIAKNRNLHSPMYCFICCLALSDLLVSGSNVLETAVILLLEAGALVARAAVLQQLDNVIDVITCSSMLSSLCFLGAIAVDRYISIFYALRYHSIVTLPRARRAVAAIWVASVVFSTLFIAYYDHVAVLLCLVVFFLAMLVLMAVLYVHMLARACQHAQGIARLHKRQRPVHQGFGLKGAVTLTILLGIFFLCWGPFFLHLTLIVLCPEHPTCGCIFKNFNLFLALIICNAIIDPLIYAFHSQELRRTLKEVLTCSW
T2 sequence (P41968 whole entry): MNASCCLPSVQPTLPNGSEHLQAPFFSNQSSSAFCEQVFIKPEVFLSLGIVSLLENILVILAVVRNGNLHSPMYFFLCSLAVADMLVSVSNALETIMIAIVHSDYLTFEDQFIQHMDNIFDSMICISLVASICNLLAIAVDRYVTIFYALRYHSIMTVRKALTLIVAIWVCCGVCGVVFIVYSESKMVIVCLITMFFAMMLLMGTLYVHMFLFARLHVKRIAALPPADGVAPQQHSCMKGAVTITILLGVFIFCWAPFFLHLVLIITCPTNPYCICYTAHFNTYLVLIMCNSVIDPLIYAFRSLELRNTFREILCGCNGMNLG
T3 sequence (P32245 whole entry): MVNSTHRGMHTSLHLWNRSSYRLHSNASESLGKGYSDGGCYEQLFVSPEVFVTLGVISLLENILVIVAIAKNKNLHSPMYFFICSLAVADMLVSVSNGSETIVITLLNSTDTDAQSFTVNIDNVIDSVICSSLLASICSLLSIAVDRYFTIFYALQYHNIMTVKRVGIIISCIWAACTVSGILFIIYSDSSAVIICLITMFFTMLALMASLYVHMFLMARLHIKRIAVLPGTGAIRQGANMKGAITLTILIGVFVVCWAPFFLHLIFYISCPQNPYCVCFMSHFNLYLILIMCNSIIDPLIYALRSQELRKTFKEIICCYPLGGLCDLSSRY
T4 sequence (P33032 whole entry): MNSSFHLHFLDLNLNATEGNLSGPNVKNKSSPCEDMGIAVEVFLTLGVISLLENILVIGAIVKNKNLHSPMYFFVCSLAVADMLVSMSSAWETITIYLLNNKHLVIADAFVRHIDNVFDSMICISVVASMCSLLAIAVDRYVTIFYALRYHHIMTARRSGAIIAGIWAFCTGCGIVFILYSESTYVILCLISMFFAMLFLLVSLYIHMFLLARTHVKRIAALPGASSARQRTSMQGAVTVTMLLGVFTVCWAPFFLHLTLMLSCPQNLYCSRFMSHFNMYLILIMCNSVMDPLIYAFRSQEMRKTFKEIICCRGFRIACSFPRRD

Row | Ki ([1]; Table 5, read-out: Ki hMC1-R) | Ki ([2]; Table 5, read-out: Ki hMC3-R) | Ki ([3]; Table 5, read-out: Ki KMC4-R) | Ki ([4]; Table 5, read-out: Ki hMC5-R) | SMILES | further results
1 | 0.0567 nM | 31.4 nM | 14.7 nM | 9.27 nM | CCOc1ccc(C[C@H]2NC(=O)[C@H](Cc3c[nH]cn3)NC(=O)[C@@H](NC(=O)[C@H](N)Cc3ccccc3)CSSC[C@H](C(=O)N[C@H](C(N)=O)[C@@H](C)O)NC(=O)CCNC(=O)[C@H](Cc3c[nH]c4ccccc34)NC(=O)[C@H](CCCCNC(=N)N)NC2=O)cc1 [D-Phe-c(Cys-His-D-(Et)Tyr-hArg-Trp-β-Ala-D-Cys)-Thr-NH2] (H-[dF]CH[dY](Et)[hArg]W[βAla][dC]T-NH2; disulfide 2-8) | EC50 ([5]; Table 9A/9B, read-out: EC50 hMC1-R): 0.345 nM; EC50 ([6]; Table 9A/9B, read-out: EC50 hMC3-R): 2.71 nM; EC50 ([7]; Table 9A/9B, read-out: EC50 hMC4-R): 5.38 nM; EC50 ([8]; Table 9A/9B, read-out: EC50 hMC5-R): 2.38 nM
2 | 0.393 nM | 1.86 nM | 0.375 nM | 1.11 nM | CCCC[C@H](NC(C)=O)C(=O)N[C@H]1CSSC[C@@H](C(N)=O)NC(=O)CCCNC(=O)[C@H](Cc2c[nH]c3ccccc23)NC(=O)[C@H](CCCNC(=N)N)NC(=O)[C@@H](Cc2ccc3ccccc3c2)NC(=O)[C@H](Cc2c[nH]cn2)NC1=O [Ac-Nle-c(Cys-His-D-2-Nal-Arg-Trp-Gaba-Cys)-NH2] (Ac-[Nle]CH[d2Nal]RW[GABA]C-NH2; disulfide 2-8) | EC50 [5, 9]: 0.231 nM; Kb [6]: 18.4 nM; Kb [7]: 0.782 nM; EC50 [8, 10]: 0.153 nM
3 | 0.42 nM | 106 nM | 4.75 nM | 1260 nM | C[C@@H](O)[C@H](NC(=O)[C@H]1CSSC[C@H](NC(=O)[C@H](N)Cc2ccccc2)C(=O)N[C@@H](Cc2c[nH]cn2)C(=O)N[C@H](Cc2ccccc2)C(=O)N[C@@H](CCCNC(=N)N)C(=O)N[C@@H](Cc2c[nH]c3ccccc23)C(=O)NCCCC(=O)N1)C(N)=O [D-Phe-c(Cys-His-D-Phe-Arg-Trp-Gaba-D-Cys)-Thr-NH2] (H-[dF]CH[dF]RW[GABA][dC]T-NH2; disulfide 2-8) | –
4 | 5.8 nM | 3370 nM | 583 nM | 1130 nM | C[C@@H](O)[C@H](NC(=O)[C@H]1CSSC[C@H](NC(=O)[C@H](N)Cc2ccccc2)C(=O)N[C@@H](Cc2c[nH]cn2)C(=O)N[C@H](Cc2ccccc2)C(=O)N[C@@H](CCCNC(=N)N)C(=O)N[C@@H](Cc2ccc(-c3ccccc3)cc2)C(=O)NCCC(=O)N1)C(N)=O [D-Phe-c(Cys-His-D-Phe-Arg-Bip-β-Ala-D-Cys)-Thr-NH2] (H-[dF]CH[dF]R[Bip][βAla][dC]T-NH2; disulfide 2-8) | –
5 | 0.207 nM | 43.2 nM | 2.58 nM | 344 nM | C[C@@H](O)[C@H](NC(=O)[C@H]1CSSC[C@H](NC(=O)[C@H](N)Cc2ccccc2)C(=O)N[C@@H](Cc2c[nH]cn2)C(=O)N[C@H](Cc2ccccc2)C(=O)N[C@@H](CCCNC(=N)N)C(=O)N[C@@H](Cc2c[nH]c3ccccc23)C(=O)NCCC(=O)N1)C(N)=O [D-Phe-c(Cys-His-D-Phe-Arg-Trp-β-Ala-D-Cys)-Thr-NH2] (H-[dF]CH[dF]RW[βAla][dC]T-NH2; disulfide 2-8) | –
6 | 0.442 nM | 123 nM | 10.3 nM | 521 nM | C[C@@H](O)[C@H](NC(=O)[C@H]1CSSC[C@H](NC(=O)[C@H](N)Cc2ccccc2)C(=O)N[C@@H](Cc2c[nH]cn2)C(=O)N[C@H](Cc2ccccc2)C(=O)N[C@@H](CCCCNC(=N)N)C(=O)N[C@@H](Cc2c[nH]c3ccccc23)C(=O)NCCC(=O)N1)C(N)=O [D-Phe-c(Cys-His-D-Phe-hArg-Trp-β-Ala-D-Cys)-Thr-NH2] (H-[dF]CH[dF][hArg]W[βAla][dC]T-NH2; disulfide 2-8) | –
7 | 1.68 nM | 1260 nM | 172 nM | 1220 nM | C[C@@H](O)[C@H](NC(=O)[C@H]1CSSC[C@H](NC(=O)[C@H](N)Cc2ccccc2)C(=O)N[C@@H](Cc2c[nH]cn2)C(=O)N[C@H](Cc2ccccc2)C(=O)N[C@@H](CCCCNC(=N)N)C(=O)N[C@@H](Cc2ccc(-c3ccccc3)cc2)C(=O)NCCC(=O)N1)C(N)=O [D-Phe-c(Cys-His-D-Phe-hArg-Bip-β-Ala-D-Cys)-Thr-NH2] (H-[dF]CH[dF][hArg][Bip][βAla][dC]T-NH2; disulfide 2-8 (inferred)) | –

The next lines start with the molecule.

Row | SMILES | Ki ([1]; Table 5, read-out: Ki hMC1-R) | Ki ([2]; Table 5, read-out: Ki hMC3-R) | Ki ([3]; Table 5, read-out: Ki KMC4-R) | Ki ([4]; Table 5, read-out: Ki hMC5-R) | further results
8 | CCCC[C@H](NC(C)=O)C(=O)N[C@H]1CSSC[C@@H](C(N)=O)NC(=O)[C@H](Cc2c[nH]c3ccccc23)NC(=O)[C@H](CCCNC(=N)N)NC(=O)[C@@H](Cc2ccccc2)NC(=O)[C@H](Cc2c[nH]cn2)NC(=O)[C@@H](C)NC1=O [Ac-Nle-c(Cys-D-Ala-His-D-Phe-Arg-Trp-Cys)-NH2] | – | – | – | – | Ki ([1]; Ki hMC1-R, Table 5): 11 nM; Ki ([2]; Ki hMC3-R, Table 5): 26 nM; Ki ([3]; Ki KMC4-R, Table 5): 7.6 nM; Ki ([4]; Ki hMC5-R, Table 5): 1800 nM; EC50 [5]: 2.4 nM; EC50 [6]: 0.33 nM; EC50 [7]: 0.078 nM; EC50 [8]: 420 nM
9 | C[C@@H]1C(=O)N[C@@H](Cc2cnc[nH]2)C(=O)N[C@H](Cc2ccccc2)C(=O)N[C@@H](CCCNC(=N)N)C(=O)N[C@@H](Cc2c[nH]c3ccccc23)C(=O)N[C@H](C(N)=O)CCNC(=O)CC[C@@H]2NC(=O)N1C2=O [c[Hydantoin(C(O)-(Glu-D-Ala))-His-D-Phe-Arg-Trp-Dab]-NH2] | – | – | – | – | Ki ([1]; Table 7, read-out: Ki hMC1): 28 nM; Ki ([2]; Table 7, read-out: Ki hMC3): 90.5 nM; Ki ([3]; Table 7, read-out: Ki hMC4): 12.7 nM; Ki ([4]; Table 7, read-out: Ki hMC5): 877 nM
10 | CC(=O)N[C@H]1CSSC[C@@H](C(=O)N2CCC[C@H]2C(=O)N2CCC[C@H]2C(=O)N[C@@H](CCCCN)C(=O)N[C@@H](CC(=O)O)C(N)=O)NC(=O)[C@H](C)NC(=O)[C@H](Cc2csc3ccccc23)NC(=O)[C@H](CCCNC(=N)N)NC(=O)[C@@H](Cc2ccc3ccccc3c2)NC(=O)[C@H](Cc2c[nH]cn2)NC(=O)[C@H](CCC(=O)O)NC1=O [Ac-c(Cys-Glu-His-D-2-Nal-Arg-Bal-Ala-Cys)-Pro-Pro-Lys-Asp-NH2] (Ac-CEH[d2Nal]R[Bta]ACPPKD-NH2; disulfide 1-8) | – | – | – | – | Ki ([1]; Table 6, read-out: Ki hMC1-R): 163 nM; Ki ([2]; Table 6, read-out: Ki hMC3-R): 23 nM; Ki ([3]; Table 6, read-out: Ki hMC4-R): 0.586 nM; Ki ([4]; Table 6, read-out: Ki hMC5-R): 844 nM
11 | CCCC[C@H](NC(C)=O)C(=O)N[C@H]1CSSC[C@@H](C(N)=O)NC(=O)[C@H](Cc2ccc3ccccc3c2)NC(=O)[C@H](CCCNC(=N)N)NC(=O)[C@@H](Cc2ccc3ccccc3c2)NC(=O)[C@H](Cc2c[nH]cn2)NC(=O)[C@@H](C)NC1=O [Ac-Nle-c(Cys-D-Ala-His-D-2-Nal-Arg-2-Nal-Cys)-NH2] (Ac-[Nle]C[dA]H[d2Nal]R[2Nal]C-NH2; disulfide 2-8) | 32.5 nM | 5.85 nM | 2.53 nM | 94.6 nM | –
12 | CCCC[C@H](NC(C)=O)C(=O)N[C@H]1CSSC[C@@H](C(N)=O)NC(=O)[C@H](Cc2cccc3ccccc23)NC(=O)[C@H](CCCNC(=N)N)NC(=O)[C@@H](Cc2ccc3ccccc3c2)NC(=O)[C@H](Cc2c[nH]cn2)NC(=O)[C@@H](C)NC1=O [Ac-Nle-c(Cys-D-Ala-His-D-2-Nal-Arg-1-Nal-Cys)-NH2] (Ac-[Nle]C[dA]H[d2Nal]R[1Nal]C-NH2; disulfide 2-8) | 114 nM | 63.9 nM | 3.07 nM | 1660 nM | EC50 [5, 9]: 383 nM; Kb [6]: 61.5 nM; Kb [7]: 53.6 nM; EC50 [8, 10]: 2840 nM
13 | CCCC[C@H](NC(C)=O)C(=O)N[C@H]1CSSC[C@@H](C(=O)O)NC(=O)[C@H](Cc2c[nH]c3ccccc23)NC(=O)[C@H](CCCNC(=N)N)NC(=O)[C@@H](Cc2ccccc2)NC(=O)[C@H](Cc2c[nH]cn2)NC(=O)[C@@H](C)NC1=O [Ac-Nle-c(Cys-D-Ala-His-D-Phe-Arg-Trp-Cys)-OH] | – | – | – | – | Ki ([1]; Ki hMC1-R, Table 5): 30.7 nM; Ki ([2]; Ki hMC3-R, Table 5): 152 nM; Ki ([3]; Ki KMC4-R, Table 5): 15.6 nM; Ki ([4]; Ki hMC5-R, Table 5): 114 nM
14 | CC(=O)N[C@@H](Cc1ccccc1)C(=O)N[C@H]1CSSC[C@@H](C(N)=O)NC(=O)CCCNC(=O)[C@H](Cc2c[nH]c3ccccc23)NC(=O)[C@H](CCCNC(=N)N)NC(=O)[C@@H](Cc2ccccc2)NC(=O)[C@H](Cc2c[nH]cn2)NC1=O [Ac-Phe-c(Cys-His-D-Phe-Arg-Trp-Gaba-Cys)-NH2] (Ac-FCH[dF]RW[GABA]C-NH2; disulfide 2-8) | – | – | – | – | Ki ([1]; Ki hMC1-R): 0.254 nM; Ki ([2]; Ki hMC3-R): 18.5 nM; Ki ([3]; Ki KMC4-R): 2.13 nM; Ki ([4]; Ki hMC5-R): 0.714 nM
15 | CCCC[C@H](NC(C)=O)C(=O)N[C@H]1CSSC[C@@H](C(N)=O)NC(=O)[C@@H](C)NC(=O)[C@H](Cc2c[nH]c3ccccc23)NC(=O)[C@H](CCCNC(=N)N)NC(=O)[C@@H](Cc2ccccc2)NC(=O)[C@H](Cc2c[nH]cn2)NC(=O)[C@@H](C)NC1=O [Ac-Nle-c(Cys-D-Ala-His-D-Phe-Arg-Trp-D-Ala-Cys)-NH2] (Ac-[Nle]C[dA]H[dF]RW[dA]C-NH2; disulfide 2-9) | 3.93 nM | 876 nM | 48 nM | 4940 nM | –
16 | CC(=O)N[C@@H](CC1CCCCC1)C(=O)N[C@H]1CC(=O)NCCCC[C@@H](C(N)=O)NC(=O)CCCNC(=O)[C@H](Cc2c[nH]c3ccccc23)NC(=O)[C@H](CCCNC(=N)N)NC(=O)[C@@H](Cc2ccc3ccccc3c2)NC(=O)[C@H](Cc2c[nH]cn2)NC1=O [Ac-Cha-c(Asp-His-D-2-Nal-Arg-Trp-Gaba-Lys)-NH2] | 0.576 nM | 3.98 nM | 2.82 nM | 3.91 nM | EC50 [5, 9]: 1.27 nM; Kb [6]: 3.02 nM; Kb [7]: 0.442 nM; EC50 [8, 10]: 0.736 nM
